How the values were obtained:
[1] = system: neurons from D3 embryonic stem (ES) cells; test: Cell culture model for chemical ischemia and neuroprotection (calcium imaging of surviving neurons); format: cell-based, mice; conditions: β-methyl-cyclodextrin or filipin
Procedure: For all experiments, D3 embryonic stem (ES) cells derived from 129/sv mice [Okabe et al., 1996] were cultivated for 12 days, with passages on days 2, 4, 7 and 9 as described previously [Sommer et al., 2004]. Insult conditions: Cells (24-well plates) were pre-incubated with or without 20 nM EPO in fresh medium for 24 hours at 37° C. Cells were rinsed once with low K^+ solution (140 mM NaCl, 4.7 mM KCl, 1.2 mM KH2PO4, 2.5 mM CaCl2, 1.2 mM MgSO4, 11 mM glucose, 15 mM Hepes-NaOH, pH 7.35). Cells (either with or without EPO pre-incubation) were incubated for up to 45 min (37° C.) with either low K^+ solution or with glucose-free low K^+ solution supplemented with 1 mM KCN (chemical ischemia solution [Kume et al., 2002]). Vitality control to asses numbers of surviving neurons was performed by a brief stimulation with a low dose of glutamate (10 μM).
Functional tests by calcium imaging were performed essentially as described [Sommer et al., 2004]. Briefly, cells were loaded with 2 μM of fura-2 AM in DMEM for 45 min at 37° C. in the dark. Measurements of relative changes in [Ca^2+] were made on an inverted epifluorescence microscope (Olympus IX70 S1F2) with a Polychrom IV Monochromator (Xe-lamp, USHIO). Excitation wavelengths (λ1, λ2) and the emission wavelength were 340, 380 and 510 nm, respectively. […]

[2] = system: undifferentiated V56 embryonic stem cells; test: LPS challenge, cell survival by Trypan Blue; format: cell-based; conditions: LPS 100 ng/ml for 60 min
Procedure: (§1) Cell pellets were further investigated by Western blot staining with anti Cox-2 and anti iNOS antibodies of 1D polyacrylamide gels.
(§2) Cell survival was assessed by Trypan Blue staining.

[3] = system: neurally differentiated V56 embryonic stem cells; test: LPS challenge, cell survival by Trypan Blue; format: cell-based; conditions: LPS 100 ng/ml for 60 min
Procedure: as §1, §2

[4] = system: 3T3 fibroblasts; test: LPS challenge, cell survival by Trypan Blue; format: cell-based; conditions: LPS 100 ng/ml for 60 min
Procedure: as §1, §2

[5] = system: A 549 cells; test: LPS challenge, cell survival by Trypan Blue; format: cell-based; conditions: LPS 100 ng/ml for 60 min
Procedure: as §1, §2

[6] = molecular target: T1, recombinant monomeric PARP-1 (Homo sapiens, UniProt P09874); test: PARP inhibition assay (R&D Systems); format: biochemical; conditions: FIG. 4b
T1 construct: purchased R&D Systems TA4669
T1 sequence (P09874 whole entry): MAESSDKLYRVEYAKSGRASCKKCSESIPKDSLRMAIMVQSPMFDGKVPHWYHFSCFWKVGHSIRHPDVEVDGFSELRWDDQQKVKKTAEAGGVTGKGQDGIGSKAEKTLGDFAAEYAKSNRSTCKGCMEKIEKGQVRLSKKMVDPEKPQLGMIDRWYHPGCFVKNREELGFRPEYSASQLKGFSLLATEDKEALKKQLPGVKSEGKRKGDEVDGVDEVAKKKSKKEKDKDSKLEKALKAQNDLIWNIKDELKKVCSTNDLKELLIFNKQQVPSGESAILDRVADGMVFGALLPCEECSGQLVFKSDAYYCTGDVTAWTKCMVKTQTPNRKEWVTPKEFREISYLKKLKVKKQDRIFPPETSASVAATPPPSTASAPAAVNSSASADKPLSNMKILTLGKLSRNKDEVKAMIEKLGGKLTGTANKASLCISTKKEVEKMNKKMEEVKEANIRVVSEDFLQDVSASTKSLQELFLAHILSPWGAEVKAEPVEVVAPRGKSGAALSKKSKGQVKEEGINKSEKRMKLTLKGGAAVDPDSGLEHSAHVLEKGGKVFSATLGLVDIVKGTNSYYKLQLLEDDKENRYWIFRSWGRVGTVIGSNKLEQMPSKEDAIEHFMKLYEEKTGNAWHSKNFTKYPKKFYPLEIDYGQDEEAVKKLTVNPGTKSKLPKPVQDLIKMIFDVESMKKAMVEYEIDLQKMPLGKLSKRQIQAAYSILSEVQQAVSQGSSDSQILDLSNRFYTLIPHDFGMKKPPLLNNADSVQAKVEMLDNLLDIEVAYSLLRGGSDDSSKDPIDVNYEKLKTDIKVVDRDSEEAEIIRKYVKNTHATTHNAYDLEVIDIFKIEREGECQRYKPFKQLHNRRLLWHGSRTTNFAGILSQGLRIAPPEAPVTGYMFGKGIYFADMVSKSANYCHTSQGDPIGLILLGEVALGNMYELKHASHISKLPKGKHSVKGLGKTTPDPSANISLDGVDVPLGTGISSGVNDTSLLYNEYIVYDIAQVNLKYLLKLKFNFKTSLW
Source text: A PARP inhibition assay from R&D Systems was used (Cat.No. TA4669) according to instructions of the supplier.
Under cellular conditions PARP-1 poly-ADP-ribosylates a host of nuclear proteins, including topoisomerase 1, 14-3-3 g and PARP-1 itself. Thus under cellular conditions, the self-modification of PARP-1 and dimerization are regulating its activity, moreover there is a tight interplay with PARG (poly-ADP- ribosyl-glycohydroxylase).

[7] = molecular target: T2, SIR-2 (Mus musculus, UniProt Q923E4); test: Affinity tag enrichment from cell extracts (1D PAGE, MALDI-TOF, immunostaining); format: binding
T2 construct: endogenous in cells; host or cells: D3 embryonic stem cells / V56 embryonic stem cells (crude extract)
T2 sequence (Q923E4 1-737): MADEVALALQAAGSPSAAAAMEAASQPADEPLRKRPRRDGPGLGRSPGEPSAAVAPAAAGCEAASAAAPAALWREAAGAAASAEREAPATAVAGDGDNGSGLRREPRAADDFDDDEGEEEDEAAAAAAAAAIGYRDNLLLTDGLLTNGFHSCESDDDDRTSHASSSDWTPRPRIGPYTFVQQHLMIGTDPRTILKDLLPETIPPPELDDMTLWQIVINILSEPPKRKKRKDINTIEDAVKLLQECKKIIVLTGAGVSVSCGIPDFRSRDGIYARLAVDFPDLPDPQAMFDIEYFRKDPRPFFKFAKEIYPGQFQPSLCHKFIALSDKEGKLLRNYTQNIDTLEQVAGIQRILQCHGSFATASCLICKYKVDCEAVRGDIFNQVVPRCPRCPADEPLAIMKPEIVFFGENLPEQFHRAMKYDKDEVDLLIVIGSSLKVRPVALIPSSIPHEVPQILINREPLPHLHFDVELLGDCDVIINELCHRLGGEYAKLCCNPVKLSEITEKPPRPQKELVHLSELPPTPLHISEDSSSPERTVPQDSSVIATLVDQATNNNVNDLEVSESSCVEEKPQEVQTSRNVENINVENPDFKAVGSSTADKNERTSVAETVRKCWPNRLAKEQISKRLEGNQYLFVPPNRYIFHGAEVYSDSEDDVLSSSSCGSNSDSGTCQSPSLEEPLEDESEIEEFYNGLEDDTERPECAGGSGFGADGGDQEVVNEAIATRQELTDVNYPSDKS
Procedure: (§3) A reactive —SCN group is introduced which binds to lysines in or near the binding site of the compound. A biotinylated linker serves for enrichment of bound protein. The synthesis is described in FIG. 1.
(§4) The affinity reagent 11 was used to bind the target covalently from fractionations of crude cell extracts of D3 ES cells and other cell lines, subsequently the affinity purified material was analysed by 1D PAGE, immunostaining, and mass spectrometry.
(§5) The subsequent fractionation, isolation and further analysis was performed according to published standard procedures (Sommer et al. 2004). A commercial anti-PARP antibody was used for staining Western blots. Mass spectrometry for independent identification of pirenzepine-tagged proteins was performed as described elsewhere recently (Vogt et al., 2003, Cahill et al., 2003).
(§6) A reactive —SCN group binds to lysins in or near the binding site of the compound. A biotinylated linker serves for enrichment of bound protein. The final affinity reagent, thiocyanato-11-[2-(4-biocytinyl-piperazin-1-yl)-acetyl]-5,11-dihydro-benzo[e]pyrido [3,2-b] [1,4] diazepin-6-one (compound (11), FIG. 1), was used to bind the target covalently from fractionations of crude cell extracts of D3 embryonic stem cells, subsequently the affinity purified material was analysed by 1D PAGE (FIG. 3a), mass spectrometry and immunostaining. […]

[8] = system: PARP-1; test: as above; format: binding
PARP-1, sequence (P11103 215-1013 limits assumed): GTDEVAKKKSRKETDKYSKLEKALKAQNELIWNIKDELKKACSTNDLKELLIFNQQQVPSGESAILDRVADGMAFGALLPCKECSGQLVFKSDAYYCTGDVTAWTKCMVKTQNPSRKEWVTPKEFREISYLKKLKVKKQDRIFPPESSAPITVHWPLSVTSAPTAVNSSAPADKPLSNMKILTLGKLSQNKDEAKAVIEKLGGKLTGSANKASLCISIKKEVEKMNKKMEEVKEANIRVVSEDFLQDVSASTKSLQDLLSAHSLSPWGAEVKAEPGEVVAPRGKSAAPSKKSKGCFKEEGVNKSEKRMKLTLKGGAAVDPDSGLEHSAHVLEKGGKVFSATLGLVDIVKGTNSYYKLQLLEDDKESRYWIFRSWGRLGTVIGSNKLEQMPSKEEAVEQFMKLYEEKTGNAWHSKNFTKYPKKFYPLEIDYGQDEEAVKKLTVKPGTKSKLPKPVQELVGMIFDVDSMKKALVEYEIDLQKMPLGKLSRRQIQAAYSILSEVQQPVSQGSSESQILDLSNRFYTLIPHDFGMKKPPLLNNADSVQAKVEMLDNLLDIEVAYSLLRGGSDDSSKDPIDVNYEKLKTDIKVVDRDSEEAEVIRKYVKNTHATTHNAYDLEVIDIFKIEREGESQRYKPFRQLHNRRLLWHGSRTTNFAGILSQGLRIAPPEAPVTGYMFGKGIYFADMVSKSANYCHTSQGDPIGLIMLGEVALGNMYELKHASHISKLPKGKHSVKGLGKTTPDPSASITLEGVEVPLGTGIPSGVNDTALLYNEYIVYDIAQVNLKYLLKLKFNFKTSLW
Procedure: as §3, §4, §5, §6

Row | Molecule | neuroprotective effect in the presence of raft-disrupting conditions [1] | protection from LPS challenge [2] | protection from LPS challenge [3] | protection from LPS challenge [4] | protection from LPS challenge [5] | PARP-1 inhibition (in words) [6] | interaction with SIR-2 [7] | interaction with PARP-1 [8]
1 | CN1CCN(CC(=O)N2c3ccccc3C(=O)Nc3cccnc32)CC1 [Pirenzepine] | does not occur | protect from LPS challenge | protect from LPS challenge | protect from LPS challenge | protect from LPS challenge | rather weak PARP-1 inhibitor | – | –
2 | thiocyanato 11-[2-(4-biocytinyl-piperazin-1-yl)-acetyl]-5,11-dihydro-benzo[e]pyrido[3,2-b][1,4]diazepin-6-one [affinity tag] | – | – | – | – | – | – | interacts with both proteins | interacts with both proteins
